In patent US20180200326A1, “ANG-(1-7) AND DERIVATIVE OLIGOPEPTIDES FOR THE TREATMENT OF TRAUMATIC BRAIN INJURY AND OTHER COGNITIVE IMPAIRMENTS” (Arizona Board Of Regents On Behalf Of The University of …, priority 2017, published 2018):
Read-outs that look alike come from different tables or passages of the source. Peptide text beside a SMILES is read from it. * marks the point of attachment. X2 = OC[C@H]1O[C@@H](O[C@H]2[C@H](O)[C@@H](O)C(*)O[C@@H]2CO)[C@H](O)[C@@H](O)[C@H]1O; X1 = OC[C@H]1OC(*)[C@H](O)[C@@H](O)[C@@H]1O

Legend:
[1] = mouse, serum
Experimental: (§3) Aliquots were withdrawn at the indicated time intervals and the peptide concentration was determined using HPLC-MS and expressed as a percentage of the initial concentration.

Mas receptor (MasR) = target: T1, Mas receptor (MasR) (Homo sapiens, UniProt P04201); details: binding to GPCR Mas receptor (MasR); cited from earlier work
T1 sequence (P04201 1-325): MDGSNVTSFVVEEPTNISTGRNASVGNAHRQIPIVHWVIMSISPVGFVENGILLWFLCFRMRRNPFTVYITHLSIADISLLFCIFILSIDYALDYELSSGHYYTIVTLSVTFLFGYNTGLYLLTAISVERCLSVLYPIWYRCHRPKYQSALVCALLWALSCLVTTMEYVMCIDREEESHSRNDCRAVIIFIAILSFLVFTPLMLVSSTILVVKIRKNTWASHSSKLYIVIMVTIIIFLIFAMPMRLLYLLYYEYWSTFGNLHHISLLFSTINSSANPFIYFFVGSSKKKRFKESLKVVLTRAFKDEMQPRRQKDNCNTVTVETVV

[2] = mouse, in vivo, sc, 10 mg/kg
Experimental: (§4) The peptides (10 mg/kg) or vehicle control were individually subcutaneously injected into naïve mice. Serum concentrations were determined every 10 minutes by HPLC-MS using a 20-30 μl blood sample. […] CSF samples were simultaneously withdrawn from the same animals via a microdialysis probe and assayed for the peptide concentration and corrected for basal CSF levels.

in vivo = details: mouse, sc, 10 mg/kg
Experimental: as §4

[3] = test system: human umbilical vascular endothelial cells (HUVEC); assay: xCELLigence RTCA cell activation (cell impedance); assay type: cell-based; details: average of 4 wells, normalized to CI at compound addition
Text: (§1) To isolate primary hippocampal CA1 neuronal cells, whole brain was removed from neonatal rat pups (1-2 day old) and the cortices dissected away. The hippocampus was isolated and the CA1 field was excised and placed in buffer. After gentle disruption in digestion buffer, the cells were counted, placed in culture media, and plated in a 96-well format coated with poly-d-lysine. At the time of plating, cells were approximately at 50% density and were allowed to culture to 70-80% density before starting the assay. Commercially available HUVEC (Life Technologies/Thermo Fisher) was thawed and plated (5000-10,000 cells/well) in a 96-well format coated with gelatin. HUVEC cells were allowed to culture overnight before starting the assay.
The xCELLigence system Real-Time Cell Analyzer (RTCA), developed by Roche Applied Science, uses microelectronic biosensor technology to do dynamic, real-time, label-free, and non-invasive analysis of cellular events including G-protein receptor activation of cells. The RTCA analysis was utilized to measure the potency and relative ability of oligopeptides of the invention and native Ang-(1-7) to activate human umbilical vascular endothelial cells (HUVEC) in culture. Following uniform cellular adherence based on a linear increase in cell impedance (CI), HUVECs were treated with Ang-(1-7) and oligopeptides of the invention. Each trace of the CI over time in FIG. 1 represents the average of 4 wells normalized to CI at the time of compound addition.

[4] = In vivo serum and CSF concentration after subcutaneous injection; details: naïve mice; 10 mg/kg subcutaneous; microdialysis probe; corrected for basal CSF levels
Experimental: as §4

[5] = test system: CHF mice (object recognition memory impairment); assay: Novel Object Recognition (NOR) in congestive heart failure mice; assay type: in vivo, mouse; details: 1 mg/kg/day subcutaneous, approximately 21 days, n=11, DRatio=(t novel−t familiar)/(t novel+t familiar), CHF-saline M=−0.05, Sham-saline M=+0.52
Experimental: (§2) A total of 33, male C57Bl/6J adult mice (Harlan, 8-10 weeks old) were used. Mice were randomly assigned to either the sham (n=12) or congestive heart failure (CHF) group (n=21). Experimental groups are described as follows: sham+saline, CHF+saline, CHF+PN-A5. All mice prior to surgery were weighed and anesthetized. For the CHF mice, MI was induced by ligation of the left coronary artery (LCA). Under anesthesia (2.5% isoflurane in a mixture of air and O2) a thoracotomy was performed at the fourth left intercostal space and the LCA permanently ligated to induce a myocardial infarction (MI). […]
The apparatus consisted of an evenly illuminated Plexiglas box (12 cm×12 cm×12 cm) placed on a table inside an isolated observation room. […] The mouse behavior and exploration of objects was recorded with a digital camera. […]
The novel object recognition task included 3 phases: habituation phase, familiarization phase, and test phase. […] Exploration was scored by an observer blind to the mouse's surgical group (CHF vs. Sham). […]
Discrimination ratios were calculated from the time spent exploring the novel object minus time spent exploring the familiar object during the test phase divided by the total exploration time. […] Data were analyzed from first 2 minutes of ‘test phase’. […]

[6] = test system: human umbilical vascular endothelial cells (HUVEC); assay: NO production assay (DAF-FM fluorescence, microplate reader); assay type: cell-based; details: 5 minutes exposure; for NO over control levels (relative peak fluorescence intensity): normalized to control fluorescence
Text: as §1
As a screen for mechanisms of action of oligopeptides of the invention, the ability to increase NO production of three oligopeptides of the invention (PN-A3, PN-A4 and PN-A5) were characterized and compared to native Ang-(1-7). Human umbilical vascular endothelial cells (HUVEC) culture plates received fluorescence reaction buffer (0.2 M phosphate buffer, pH 7, 1 mM EDTA, 0.1% glucose) containing diaminofluorescein-FM diacetate (DAF-FM, 1 μM) to measure real-time NO production. Time-resolved (10 minutes) fluorescent intensity was detected using a BioTek Synergy 2 microplate reader with excitation at 485 nm and emission at 535 nm. DAF-FM is a sensitive flourometric derivative for the selective detection of NO in live cells.
Values were normalized to control fluorescence.

[7] = test system: CHF mice (spatial memory impairment); assay: Morris water task (spatial memory) in congestive heart failure mice; assay type: in vivo, mouse; details: 1 mg/kg/day subcutaneous, approximately 25 days, day 3 of Morris swim task, n=11, CHF-saline M=32.5
Experimental: as §2, with “(MI). Occlusion of the LCA was confirmed by observing blanching, a slight change in color of the anterior wall of the left ventricle downstream of the ligature. Sham mice underwent the same procedure with the exception of ligating the LCA.” for “(MI).”
During the spatial version of the Morris water task, all animals were given 6 training trials per day over 4 consecutive days. […] Performance on the swim task was analyzed with a commercial software application (ANY-maze, Wood Dale, Ill.). Because different release locations and differences in swimming velocity produce variability in the latency to reach the escape platform, a corrected integrated path length (CIPL) was calculated to ensure comparability of mice performance across different release locations. […]

[8] = In Vitro Serum Half-Life Assay; details: mouse
Experimental: as §3

| Molecule | half-life [1] [min] | increase in CI (cell impedance) over the native Ang-(1-7) ([3]; 10 nM) [fold] | increase in CI (cell impedance) over the native Ang-(1-7) ([3]; 100 nM) [fold] | NO over control levels (relative peak fluorescence intensity) [6] | other results |
| --- | --- | --- | --- | --- | --- |
| CC[C@H](C)[C@H](NC(=O)[C@H](Cc1ccc(O)cc1)NC(=O)[C@@H](NC(=O)[C@H](CCCNC(=N)N)NC(=O)[C@@H](N)CC(=O)O)C(C)C)C(=O)N[C@@H](Cc1c[nH]cn1)C(=O)N1CCC[C@H]1C(=O)O [native Ang-(1-7), Asp-Arg-Val-Tyr-Ile-His-Pro] | 14 | – | – | – | Kd (Mas receptor (MasR)): 0.83 nM; maximum CSF concentration [2]: about 50 nM; Cmax (in vivo): ~200 nM |
| CC[C@H](C)[C@H](NC(=O)[C@H](Cc1ccc(O)cc1)NC(=O)[C@@H](NC(=O)[C@H](CCCNC(=N)N)NC(=O)[C@@H](N)CC(=O)O)C(C)C)C(=O)N[C@@H](Cc1c[nH]cn1)C(=O)N[C@@H](COC1O[C@H](CO)[C@@H](O)[C@H](O)[C@H]1O)C(N)=O (stereo partly drawn) [PN-A5, Ang 1-6-Ser(OGlc)-NH2] (H-DRVYIHS(X1)-NH2; N-terminus assumed) | – | ~2 | ~2 | significant elevation | maximum CSF concentration [4]: about 400 nM; discrimination ratio in NOR test (mean M) [5]: +0.38; NO production compared with native Ang-(1-7) ([6]; p<0.05): significantly enhancing NO production; corrected integrated path length (CIPL), mean M [7]: 23.5 |
| PN-A4: native Ang(1-7) sequence with added C-terminal Ser8, lactosylated and C-terminally amidated (NH2); SEQ ID NO: 9 (DRVYIHPS; lactosylated, C-terminal amide; (8)..(8) Glycosylated; (8)..(8) Carboxy terminal NH2; See specification as filed for detailed description of substitutions and preferred embodiments) | – | – | ~2 | significant elevation | – |
| PN-A3: native Ang(1-7) sequence with added C-terminal Ser8, glucosylated and C-terminally amidated (NH2); SEQ ID NO: 9 (DRVYIHPS; glucosylated, C-terminal amide; (8)..(8) Glycosylated; (8)..(8) Carboxy terminal NH2; See specification as filed for detailed description of substitutions and preferred embodiments) | – | ~2 | ~2 | significant elevation | – |
| CC[C@H](C)[C@H](NC(=O)[C@H](Cc1ccc(O)cc1)NC(=O)[C@@H](NC(=O)[C@H](CCCNC(=N)N)NC(=O)[C@@H](N)CC(=O)O)C(C)C)C(=O)N[C@@H](Cc1c[nH]cn1)C(=O)N1CCC[C@H]1C(N)=O [PN-A2, Ang 1-7-NH2] | 21 | – | – | – | – |
| CC[C@H](C)[C@H](NC(=O)[C@H](Cc1ccc(O)cc1)NC(=O)[C@@H](NC(=O)[C@H](CCCNC(=N)N)NC(=O)[C@@H](N)CC(=O)O)C(C)C)C(=O)N[C@@H](Cc1c[nH]cn1)C(=O)N[C@@H](COC1O[C@H](CO)[C@@H](O[C@@H]2O[C@H](CO)[C@H](O)[C@H](O)[C@H]2O)[C@H](O)[C@H]1O)C(N)=O (stereo partly drawn) [PN-A6, Ang 1-6-Ser(OLac)-NH2] (H-DRVYIHS(X2)-NH2) | – | – | – | – | half-life [8]: 348 min |
